Experiment: xn = mol fraction of the nth substance listed, in the solute-free solvent

O=C(O)c1cc([N+](=O)[O-])ccc1O + CO + O
solubility (g/100 g solution)
Settings | 278.15 K | 283.15 K | 288.15 K | 293.15 K | 298.15 K | 303.15 K | 308.15 K | 313.15 K | 318.15 K | 323.15 K
x2 = 0.05881 | 0.117 | 0.173 | 0.235 | 0.287 | 0.359 | 0.429 | 0.505 | 0.603 | 0.726 | 0.877
x2 = 0.1233 | 0.41 | 0.537 | 0.709 | 0.886 | 1.08 | 1.29 | 1.53 | 1.79 | 2.1 | 2.45
x2 = 0.1942 | 1.03 | 1.3 | 1.61 | 2 | 2.42 | 2.83 | 3.35 | 3.9 | 4.5 | 5.22
x2 = 0.2727 | 2.03 | 2.54 | 3.13 | 3.79 | 4.57 | 5.28 | 6.22 | 7.27 | 8.39 | 9.67
x2 = 0.3599 | 4.15 | 4.74 | 5.63 | 6.73 | 7.94 | 9.14 | 10.4 | 11.7 | 13.1 | 14.6
x2 = 0.4576 | 7.29 | 8.14 | 9.16 | 10.4 | 11.9 | 13.4 | 15.2 | 17.1 | 19.2 | 21.5
x2 = 0.5675 | 9.53 | 10.8 | 12.5 | 14.2 | 15.9 | 17.6 | 19.5 | 21.5 | 23.6 | 25.8
x2 = 0.6923 | 11.6 | 12.9 | 14.7 | 17 | 19.2 | 21.1 | 23.1 | 25.2 | 27.2 | 29.4
x2 = 0.835 | 13.8 | 15.1 | 16.8 | 18.7 | 21.1 | 23.3 | 25.3 | 27.6 | 29.8 | 32.4

Nc1cncc(Cl)n1 + CCO + O
solubility (g/100 g solution)
Settings | 278.15 K | 283.15 K | 288.15 K | 293.15 K | 298.15 K | 303.15 K | 308.15 K | 313.15 K | 318.15 K | 323.15 K
x2 = 0.04165 | 0.0437 | 0.053 | 0.0624 | 0.075 | 0.0883 | 0.106 | 0.124 | 0.145 | 0.168 | 0.197
x2 = 0.08908 | 0.071 | 0.0856 | 0.101 | 0.12 | 0.141 | 0.17 | 0.198 | 0.23 | 0.267 | 0.313
x2 = 0.1436 | 0.11 | 0.132 | 0.155 | 0.185 | 0.217 | 0.259 | 0.302 | 0.35 | 0.405 | 0.476
x2 = 0.2068 | 0.161 | 0.193 | 0.226 | 0.27 | 0.316 | 0.376 | 0.438 | 0.508 | 0.588 | 0.691
x2 = 0.2812 | 0.21 | 0.253 | 0.299 | 0.358 | 0.419 | 0.501 | 0.589 | 0.681 | 0.792 | 0.934
x2 = 0.3698 | 0.277 | 0.332 | 0.392 | 0.469 | 0.548 | 0.654 | 0.765 | 0.889 | 1.03 | 1.23
x2 = 0.4772 | 0.337 | 0.404 | 0.479 | 0.573 | 0.677 | 0.806 | 0.943 | 1.1 | 1.28 | 1.51
x2 = 0.6101 | 0.374 | 0.451 | 0.544 | 0.654 | 0.776 | 0.918 | 1.08 | 1.26 | 1.48 | 1.77
x2 = 0.7788 | 0.399 | 0.482 | 0.579 | 0.7 | 0.826 | 0.99 | 1.16 | 1.38 | 1.62 | 1.94

CCCCOc1ccc(C(=O)CCN2CCCCC2)cc1.Cl + CCO + O
solubility (g/100 g solution)
Settings | 278.15 K | 283.15 K | 288.15 K | 293.15 K | 298.15 K | 303.15 K | 308.15 K | 313.15 K | 318.15 K | 323.15 K
x2 = 0.1 | 34.6 | 37.9 | 41.1 | 44.6 | 48.1 | 51.6 | 55.2 | 58.8 | 62.2 | 65.7
x2 = 0.2 | 33.9 | 37.1 | 40.3 | 43.8 | 47.1 | 50.6 | 54.1 | 57.7 | 61.1 | 64.5
x2 = 0.3 | 33.4 | 36.5 | 39.6 | 43 | 46.3 | 49.8 | 53.2 | 56.7 | 60.1 | 63.5
x2 = 0.4 | 33.1 | 36.1 | 39.2 | 42.4 | 45.7 | 49 | 52.4 | 55.9 | 59.4 | 62.7
x2 = 0.5 | 32.7 | 35.7 | 38.8 | 42 | 45.1 | 48.5 | 51.8 | 55.3 | 58.7 | 62
x2 = 0.6 | 32.5 | 35.4 | 38.4 | 41.5 | 44.7 | 48 | 51.3 | 54.7 | 58.2 | 61.5
x2 = 0.7 | 32.2 | 35.1 | 38.1 | 41.2 | 44.4 | 47.6 | 50.9 | 54.3 | 57.8 | 61
x2 = 0.8 | 32 | 35 | 37.9 | 41 | 44.1 | 47.2 | 50.5 | 53.9 | 57.3 | 60.6
x2 = 0.9 | 31.9 | 34.8 | 37.8 | 40.7 | 43.8 | 47 | 50.3 | 53.6 | 57 | 60.2

COC1=CC(=O)CC(C)C12Oc1c(Cl)c(OC)cc(OC)c1C2=O (stereo unspecified) + CC(C)=O + CC(C)O
solubility (g/100 g solution)
Settings | 283.15 K | 288.15 K | 293.15 K | 298.15 K | 303.15 K | 308.15 K | 313.15 K | 318.15 K | 323.15 K
x2 = 0.1 | 0.176 | 0.236 | 0.261 | 0.31 | 0.375 | 0.463 | 0.602 | 0.688 | 0.843
x2 = 0.2 | 0.338 | 0.422 | 0.511 | 0.55 | 0.668 | 0.817 | 0.967 | 1.11 | 1.3
x2 = 0.3 | 0.587 | 0.663 | 0.787 | 0.871 | 1.04 | 1.22 | 1.41 | 1.64 | 1.96
x2 = 0.4 | 0.84 | 0.915 | 1.06 | 1.23 | 1.44 | 1.7 | 1.94 | 2.17 | 2.51
x2 = 0.5 | 1.23 | 1.4 | 1.5 | 1.62 | 1.85 | 2.16 | 2.51 | 2.8 | 3.19
x2 = 0.6 | 1.56 | 1.76 | 1.94 | 2.08 | 2.34 | 2.72 | 3.08 | 3.41 | 3.89
x2 = 0.7 | 1.81 | 2.09 | 2.35 | 2.55 | 2.87 | 3.3 | 3.65 | 4.05 | 4.58
x2 = 0.8 | 2.16 | 2.39 | 2.72 | 2.95 | 3.38 | 3.76 | 4.19 | 4.67 | 5.21
x2 = 0.9 | 2.56 | 2.71 | 3.08 | 3.33 | 3.78 | 4.3 | 4.68 | 5.15 | 5.53

Reference: the CheMixHub drug solubility set
